Assay results reported in ChEMBL document CHEMBL5620380, “Identification of 5-[5-cyano-1-(pyridin-2-ylmethyl)-1H-indole-3-carboxamido] thiazole-4-carboxylic acid as a promising dual inhibitor of urate transporter 1 and xanthine oxidase” (Eur J Med Chem, 2023).
pIC50: −log10 of the molar value. Calls of active or inactive are those of the source. No cut-off for these calls is given here.

Columns and labels:
[1] = target: T1, Solute carrier family 22 member 12 (Homo sapiens, UniProt Q96S37); assay: Inhibition of URAT1 (unknown origin)-mediated 14C uric acid uptake expressed in HEK293 cells using 14C uric acid as substrate at 10 uM by liquid scintillation counting analysis; format: cell-based
T1 sequence (Q96S37 whole entry): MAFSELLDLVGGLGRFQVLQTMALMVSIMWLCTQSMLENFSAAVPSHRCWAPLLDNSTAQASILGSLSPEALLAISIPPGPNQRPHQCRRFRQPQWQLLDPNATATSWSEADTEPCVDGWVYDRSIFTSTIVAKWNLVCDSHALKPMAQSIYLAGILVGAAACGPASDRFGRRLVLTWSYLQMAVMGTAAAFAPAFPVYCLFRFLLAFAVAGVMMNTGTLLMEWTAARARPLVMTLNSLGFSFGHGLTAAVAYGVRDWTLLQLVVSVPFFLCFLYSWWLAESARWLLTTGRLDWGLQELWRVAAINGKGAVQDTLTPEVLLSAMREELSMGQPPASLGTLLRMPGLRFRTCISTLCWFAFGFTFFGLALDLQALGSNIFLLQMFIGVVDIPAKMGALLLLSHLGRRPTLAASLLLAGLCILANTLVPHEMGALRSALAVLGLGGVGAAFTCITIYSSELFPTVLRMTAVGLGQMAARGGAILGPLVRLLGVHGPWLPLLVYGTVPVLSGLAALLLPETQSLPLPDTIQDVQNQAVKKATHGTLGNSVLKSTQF

[2] = system: Rattus norvegicus; assay: Hypouricemic activity against potassium oxonate-induced hyperuricemia Sprague-Dawley rat model assessed as decrease in serum uric acid level at 10 mg/kg, ig administered 1 hr post-potassium oxonate challenge and measured after 1 to 5 hrs; format: functional, organism-based; conditions: time 1-5 hrs
[3] = target: T2, Xanthine dehydrogenase/oxidase (Bos taurus, UniProt P80457); assay: Inhibition of bovine XO assessed as inhibition of uric acid production using xanthine as substrate preincubated for 25 mins followed by substrate addition and measured for first 2 mins by spectrophotometric analysis
[4] = system: Rattus norvegicus; assay: Hypouricemic activity against potassium oxonate-induced hyperuricemia Sprague-Dawley rat model assessed as decrease in AUC of serum uric acid level at 10 mg/kg, ig administered 1 hr post-potassium oxonate challenge and measured after 1 to 5 hrs; format: functional; conditions: po, time 1-5 hrs
[5] = system: Rattus norvegicus; assay: Hypouricemic activity against potassium oxonate-induced hyperuricemia Sprague-Dawley rat model assessed as decrease in serum uric acid level at 10 mg/kg, ig administered 1 hr post-potassium oxonate challenge and measured after 3 hrs; format: functional; conditions: po
[6] = target: T2, Xanthine dehydrogenase/oxidase; assay: Mixed inhibition of bovine XO assessed as increase in Km with decrease in Vmax using xanthine as substrate by Lineweaver-Burk plot analysis; conditions: cattle
[7] = target: T2, Xanthine dehydrogenase/oxidase; assay: Potency index, ratio of allopurinol IC50 to test compound IC50 for inhibition of bovine XO; conditions: cattle
[8] = target: T2, Xanthine dehydrogenase/oxidase; assay: Inhibition of bovine XO assessed as inhibition of uric acid production using xanthine as substrate at 10 uM preincubated for 25 mins followed by substrate addition and measured for first 2 mins by spectrophotometric analysis; conditions: cattle, time 27 min

T2 sequence (P80457 whole entry): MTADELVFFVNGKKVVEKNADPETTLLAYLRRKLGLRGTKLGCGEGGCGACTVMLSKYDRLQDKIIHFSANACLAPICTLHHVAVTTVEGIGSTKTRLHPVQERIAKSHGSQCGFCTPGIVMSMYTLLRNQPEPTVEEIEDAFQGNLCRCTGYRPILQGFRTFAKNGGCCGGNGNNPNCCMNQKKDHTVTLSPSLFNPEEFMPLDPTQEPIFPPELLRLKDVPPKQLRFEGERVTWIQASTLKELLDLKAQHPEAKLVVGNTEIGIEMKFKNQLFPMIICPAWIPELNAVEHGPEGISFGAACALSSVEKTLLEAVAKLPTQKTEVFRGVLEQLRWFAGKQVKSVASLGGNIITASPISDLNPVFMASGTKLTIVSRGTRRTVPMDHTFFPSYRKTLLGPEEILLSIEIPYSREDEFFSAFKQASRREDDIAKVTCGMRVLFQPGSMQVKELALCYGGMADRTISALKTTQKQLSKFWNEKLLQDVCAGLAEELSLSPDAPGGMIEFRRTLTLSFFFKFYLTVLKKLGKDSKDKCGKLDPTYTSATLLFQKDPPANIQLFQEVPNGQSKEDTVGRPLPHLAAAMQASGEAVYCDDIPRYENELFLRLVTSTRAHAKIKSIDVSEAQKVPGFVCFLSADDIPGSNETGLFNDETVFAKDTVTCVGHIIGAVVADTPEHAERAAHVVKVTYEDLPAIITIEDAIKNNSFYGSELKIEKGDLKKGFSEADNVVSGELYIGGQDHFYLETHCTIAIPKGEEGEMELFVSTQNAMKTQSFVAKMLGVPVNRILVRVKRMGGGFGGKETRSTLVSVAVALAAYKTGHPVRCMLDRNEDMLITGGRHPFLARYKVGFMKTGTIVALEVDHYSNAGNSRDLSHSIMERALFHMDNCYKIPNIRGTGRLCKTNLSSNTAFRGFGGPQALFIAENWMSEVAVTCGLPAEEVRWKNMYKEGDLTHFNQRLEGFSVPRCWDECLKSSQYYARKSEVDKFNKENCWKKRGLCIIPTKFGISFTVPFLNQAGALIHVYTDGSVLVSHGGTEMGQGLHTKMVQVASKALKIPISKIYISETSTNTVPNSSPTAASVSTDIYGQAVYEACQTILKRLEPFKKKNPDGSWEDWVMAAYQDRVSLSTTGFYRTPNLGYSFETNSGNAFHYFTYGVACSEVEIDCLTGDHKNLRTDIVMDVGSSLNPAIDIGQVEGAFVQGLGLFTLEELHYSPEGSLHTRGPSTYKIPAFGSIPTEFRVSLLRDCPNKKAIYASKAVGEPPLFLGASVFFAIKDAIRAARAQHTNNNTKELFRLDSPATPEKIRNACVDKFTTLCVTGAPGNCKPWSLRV

Row | Structure (SMILES) | inhibition at 10 µM [1] [%] | further results
1 | O=C(O)c1ccccc1NC(=O)c1cn(Cc2ccncc2)c2ccccc12 | 68.4 | 
2 | Oc1ncnc2[nH]ncc12 |  | Activity [2]: Active
3 | O=C(O)CSc1nnc(Br)n1-c1ccc(C2CC2)c2ccccc12 | 47 | 
4 | O=C(O)c1ccccc1NC(=O)c1cn(Cc2cccs2)c2ccccc12 | 56.7 | 
5 | Cc1ccc(Cn2cc(C(=O)Nc3ccccc3C(=O)O)c3ccccc32)cc1 | 61 | 
6 | O=C(O)c1cccc(NC(=O)c2c[nH]c3ccccc23)c1 | 25.8 | 
7 | Cc1ccc2c(c1)c(C(=O)Nc1ccccc1C(=O)O)cn2Cc1ccccn1 | 46.8 | 
8 | O=C(O)c1ccccc1NC(=O)c1cn(Cc2ccccc2)c2ccccc12 | 41.3 | 
9 | O=C(O)c1ccccc1NC(=O)c1cn(Cc2cccnn2)c2ccccc12 | 10.4 | 
10 | O=C(O)c1ccccc1NC(=O)c1cn(Cc2ccc(F)cc2)c2ccccc12 | 73.4 | 
11 | O=C(O)c1ccccc1NC(=O)c1cn(Cc2cscn2)c2ccccc12 | 64.4 | 
12 | O=C(O)c1ccccc1NC(=O)c1cn(Cc2ncccn2)c2ccccc12 | 49.9 | 
13 | O=C(O)c1ccccc1NC(=O)c1cn(Cc2ccc(Cl)cc2)c2ccccc12 | 69.4 | 
14 | N#Cc1ccc2c(c1)c(C(=O)Nc1cc[nH]c1C(=O)O)cn2Cc1ccccn1 | 51 | pIC50 [3]: 5.57
15 | O=C(O)c1ccccc1NC(=O)c1cn(Cc2ccc(Br)cc2)c2ccccc12 | 73.6 | 
16 | COc1ccc(/C=C/C(=O)Nc2ccccc2C(=O)O)cc1OC | 44.9 | Activity [2]: Active
17 | O=C(O)c1ccc(NC(=O)c2c[nH]c3ccccc23)cc1 | 0.1 | 

Row | Structure (SMILES) | inhibition at 10 µM [1] [%] | further results
18 | Cc1ccc2c(C(=O)Nc3ccccc3C(=O)O)cn(Cc3ccccn3)c2c1 | 49.1 | 
19 | O=C(O)c1ccccc1NC(=O)c1c[nH]c2ccccc12 | 33.2 | 
20 | O=C(O)c1ccccc1NC(=O)c1cn(C(=O)c2ccccc2)c2ccccc12 | 10.9 | 
21 | N#Cc1ccc2c(C(=O)Nc3ccccc3C(=O)O)cn(Cc3ccccn3)c2c1 | 65.7 | 
22 | O=C(O)c1ccccc1NC(=O)c1cn(Cc2cccnc2)c2ccccc12 | 43.1 | 
23 | O=C(O)c1ccccc1NC(=O)c1cn(Cc2cccc(F)c2)c2ccccc12 | 48 | 
24 | COc1ccc(Cn2cc(C(=O)Nc3ccccc3C(=O)O)c3ccccc32)cc1 | 53.9 | 
25 | O=C(O)c1ccccc1NC(=O)c1cn(Cc2ccccn2)c2cc(F)ccc12 | 51.6 | 
26 | N#Cc1ccc2c(c1)c(C(=O)Nc1scnc1C(=O)O)cn2Cc1ccccn1 | 48 | pIC50 [3]: 6.00; inhibition in vivo at 10 mg/kg [4]: 25.8%; inhibition in vivo at 10 mg/kg [5]: 22.3%; inhibition (INH) [6]: Active; Ratio IC50 [7]: 9.1
27 | CC(C)(C)c1ccc(Cn2cc(C(=O)Nc3ccccc3C(=O)O)c3ccccc32)cc1 | -4.8 | 
28 | O=C(O)c1ccccc1NC(=O)c1cn(Cc2cnccn2)c2ccccc12 | 52.7 | 
29 | O=C(O)c1ccccc1NC(=O)c1cn(Cc2ccccn2)c2ccc(F)cc12 | 51.1 | 
30 | O=C(O)c1ccccc1NC(=O)c1cn(Cc2ccccn2)c2ccccc12 | 81.4 | 
31 | O=C(O)c1ccccc1NC(=O)c1cn(Cc2ccccc2F)c2ccccc12 | 40.7 | 
32 | N#Cc1ccc2c(c1)c(C(=O)Nc1ccccc1C(=O)O)cn2Cc1ccccn1 | 60.7 | inhibition at 10 µM [8]: 33.5%
33 | N#Cc1ccc2c(c1)c(C(=O)Nc1ncc(C(=O)O)s1)cn2Cc1ccccn1 | 15.9 | pIC50 [3]: 5.67
